{
  "source": "patent US9296697B2",
  "about": "“Hetaryl-substituted guanidine compounds and use thereof as binding partners for 5-HT5-receptors” (Abbott Laboratories, priority 2005, dated 2016)",
  "note": "Where a name gives a salt, the structure may show the parent alone.",
  "data": [
    {"molecular_target": "T1, h5-HT5A receptor (Homo sapiens, UniProt P47898)", "T1 construct": "expressed in transfected cells; membranes used", "T1 sequence (P47898 whole entry)": "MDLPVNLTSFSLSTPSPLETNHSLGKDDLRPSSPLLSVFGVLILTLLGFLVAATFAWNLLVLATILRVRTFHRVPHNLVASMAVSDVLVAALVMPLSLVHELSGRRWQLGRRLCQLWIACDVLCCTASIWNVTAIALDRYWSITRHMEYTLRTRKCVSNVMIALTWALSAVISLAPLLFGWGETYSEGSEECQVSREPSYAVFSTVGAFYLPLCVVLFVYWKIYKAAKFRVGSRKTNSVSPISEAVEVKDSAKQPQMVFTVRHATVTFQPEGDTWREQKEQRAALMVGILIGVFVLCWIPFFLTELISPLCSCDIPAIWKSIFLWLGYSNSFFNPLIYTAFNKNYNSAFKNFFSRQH", "assay": "h5-HT5A [3H]5-CT binding assay", "conditions": "affinity for 5-HT5A; membranes of HEK293 cells expressing the h5-HT5A receptor gene, 2.5 nM [3H]5-CT", "experimental": "h5-HT5A [^3H]5-CT Binding Assay\nMembranes of HEK293 cells which permanently express the h5-HT5A receptor gene were incubated in 100 mM tris-HCl buffer (pH 7.7) containing 1 mM EDTA, in the presence of 2.5 nM [^3H]5-CT (total volume 600 μL). The total binding is defined as the binding that is observed when the membranes are incubated in the presence of only the radioligand. The inhibition induced by the compound is determined by incubation of cell membranes in the presence of the radioligand and various concentrations of the compound of interest. Nonspecific binding is defined as the [^3H]5-CT binding obtained by incubation of the membranes, the same as for the total binding, but in the presence of 10 μM methiothepine. Following incubation for 75 min at 30° C., the membrane suspension was filtered through a GF/B-Filter coated with 0.03% PEI, using a Skatron® harvesting system. The residual radioactivity in the filter was quantified by liquid scintillation counting.\nVarious concentrations of the test substances were used in both assays, and the Ki or IC50 values were determined.", "units": {"Ki": "nM"}, "values": [
      {"smiles": "COc1cccc(OC)c1CNC(=N)Nc1cc(-c2ccccc2)ccn1", "note": "[Example 56, N-(2,6-Dimethoxybenzyl)-N′-(4-phenylpyridin-2-yl)guanidine diacetate]", "Ki": "< 100"},
      {"smiles": "COc1ccccc1CNC(=N)Nc1cc(-c2ccc(F)cc2)ccn1", "note": "[Example 59, N-[4-(4-Fluorophenyl)pyridin-2-yl]-N′-(2-methoxybenzyl)guanidine acetate]", "Ki": "< 300"},
      {"smiles": "COc1cccc(OC)c1CNC(=N)Nc1ccc(C#N)cn1", "note": "[Example 85, N-(5-Cyanopyridin-2-yl)-N′-(2,6-dimethoxybenzyl)guanidine acetate]", "Ki": "< 100"},
      {"smiles": "COc1ccccc1CNC(=N)Nc1ccc[n+](C)c1", "note": "[Example 35, 3-({Imino[(2-methoxybenzyl)amino]methyl}amino)-1-methylpyridinium acetate]", "Ki": "< 10000"},
      {"smiles": "COc1cccc(OC)c1CNC(=N)Nc1ncccc1C#N", "note": "[Example 65, N-(3-Cyanopyridin-2-yl)-N′-(2,6-dimethoxybenzyl)guanidine acetate]", "Ki": "< 10000"},
      {"smiles": "COc1ccccc1CNC(=N)Nc1cccc(-c2cccs2)n1", "note": "[Example 49, N-(2-Methoxybenzyl)-N′-[6-(2-thienyl)pyridin-2-yl]guanidine]", "Ki": "< 100"},
      {"smiles": "COc1cccc(F)c1CNC(=N)Nc1ncccc1C", "note": "[Example 32, N-(2-Fluoro-6-methoxybenzyl)-N′-(3-methylpyridin-2-yl)guanidine]", "Ki": "< 100"},
      {"smiles": "COc1cccc(OC)c1CNC(=N)Nc1ncccc1-c1ccc(F)cc1", "note": "[Example 61, N-(2,6-Dimethoxybenzyl)-N′-(3-(4-fluorophenyl)pyridin-2-yl)guanidine acetate]", "Ki": "< 300"},
      {"smiles": "COc1ccccc1CNC(=N)Nc1cc(C#N)ccn1", "note": "[Example 66, N-(4-Cyanopyridin-2-yl)-N′-(2-methoxybenzyl)guanidine acetate]", "Ki": "< 100"},
      {"smiles": "COc1cccc(F)c1CNC(=N)Nc1cccc(Br)n1", "note": "[Example 72, N-(6-Bromopyridin-2-yl)-N′-(2-fluoro-6-methoxybenzyl)guanidine]", "Ki": "< 100"},
      {"smiles": "COc1cccc(OC)c1CNC(=N)Nc1cccc(-c2ccc(F)cc2)n1", "note": "[Example 54, N-(2,6-Dimethoxybenzyl)-N′-[6-(4-fluorophenyl)pyridin-2-yl]guanidine]", "Ki": "< 100"},
      {"smiles": "COc1cccc(F)c1CNC(=N)Nc1ccc(I)cn1", "note": "[Example 92, N-(2-Fluoro-6-methoxybenzyl)-N′-(5-iodopyridin-2-yl)guanidine acetate]", "Ki": "< 100"},
      {"smiles": "COc1cccc(Cl)c1CNC(=N)Nc1cccc(C#N)n1", "note": "[Example 78, N-(2-Chloro-6-methoxybenzyl)-N′-(6-cyanopyridin-2-yl)guanidine acetate]", "Ki": "< 100"},
      {"smiles": "COc1ccccc1CNC(=N)Nc1cccc(-c2ccc(F)cc2)n1", "note": "[Example 50, N-[6-(4-Fluorophenyl)pyridin-2-yl]-N′-(2-methoxybenzyl)guanidine]", "Ki": "< 300"},
      {"smiles": "COc1ccccc1CNC(=N)Nc1cccc(C#N)n1", "note": "[Example 52, N-(6-Cyanopyridin-2-yl)-N′-(2-methoxybenzyl)guanidine acetate]", "Ki": "< 100"},
      {"smiles": "COc1ccccc1CNC(=N)Nc1cccc(-c2ccccc2)n1", "note": "[Example 51, N-(2-Methoxybenzyl)-N′-(6-phenylpyridin-2-yl)guanidine acetate]", "Ki": "< 100"},
      {"smiles": "COc1ccccc1CNC(=N)Nc1ncccc1C", "note": "[Example 12, N-(2-Methoxybenzyl)-N′-(3-methylpyridin-2-yl)guanidine acetate]", "Ki": "< 100"},
      {"smiles": "CCc1ccccc1CNC(=N)Nc1ccc(C)cn1", "note": "[Example 25, N-(2-Ethylbenzyl)-N′-(5-methylpyridin-2-yl)guanidine]", "Ki": "< 300"},
      {"smiles": "COc1cccc(OC)c1CNC(=N)Nc1cccc(Cc2ccccc2)n1", "note": "[Example 70, N-(6-Benzylpyridin-2-yl)-N′-(2,6-dimethoxybenzyl)guanidine acetate]", "Ki": "< 100"},
      {"smiles": "COc1cccc(OC)c1CNC(=N)Nc1ncccn1", "note": "[Example 37, N-(2,6-Dimethoxybenzyl)-N′-pyrimidin-2-ylguanidine]", "Ki": "< 100"},
      {"smiles": "COc1ccccc1CNC(=N)Nc1ncc(C(F)(F)F)cc1Cl", "note": "[Example 10, N-[3-Chloro-5-(trifluoromethyl)pyridin-2-yl]-N′-(2-methoxybenzyl)guanidine acetate]", "Ki": "< 10000"},
      {"smiles": "N#Cc1cccc(NC(=N)NCc2ccccc2OC(F)(F)F)n1", "note": "[Example 79, N-(6-Cyanopyridin-2-yl)-N′-[2-(trifluoromethoxy)benzyl]guanidine acetate]", "Ki": "< 100"},
      {"smiles": "CCOc1ccccc1CNC(=N)Nc1cccc(Br)n1", "note": "[Example 75, N-(6-Bromopyridin-2-yl)-N′-(2-ethoxybenzyl)guanidine acetate]", "Ki": "< 100"},
      {"smiles": "COc1ccccc1CNC(=N)Nc1cc(Br)ccn1", "note": "[Example 45, N-(4-Bromopyridin-2-yl)-N′-(2-methoxybenzyl)guanidine]", "Ki": "< 100"},
      {"smiles": "COc1cccc(OC)c1CNC(=N)Nc1cc(C)ccn1", "note": "[Example 30, N-(2,6-Dimethoxybenzyl)-N′-(4-methylpyridin-2-yl)guanidine acetate]", "Ki": "< 100"},
      {"smiles": "COc1cccc(OC)c1CNC(=N)Nc1cc2ccccc2cn1", "note": "[Example 39, N-(2,6-Dimethoxybenzyl)-N′-isoquinolin-3-ylguanidine]", "Ki": "< 100"},
      {"smiles": "N=C(NCc1ccccc1OC(F)(F)F)Nc1cccc(Br)n1", "note": "[Example 73, N-(6-Bromopyridin-2-yl)-N′-[2-(trifluoromethoxy)benzyl]guanidine]", "Ki": "< 100"},
      {"smiles": "COc1cccc(OC)c1CNC(=N)Nc1ccc(-c2ccccc2)cn1", "note": "[Example 83, N-(2,6-Dimethoxybenzyl)-N′-(5-phenylpyridin-2-yl) guanidine acetate]", "Ki": "< 100"},
      {"smiles": "COc1cccc(OC)c1CNC(=N)Nc1cccc(-c2ccccc2)n1", "note": "[Example 53, N-(2,6-Dimethoxybenzyl)-N′-(6-phenylpyridin-2-yl)guanidine acetate]", "Ki": "< 100"},
      {"smiles": "COc1cccc(C)c1CNC(=N)Nc1cccc(Br)n1", "note": "[Example 71, N-(6-Bromopyridin-2-yl)-N′-(2-methoxy-6-methylbenzyl)guanidine]", "Ki": "< 100"},
      {"smiles": "COc1ccccc1CNC(=N)Nc1cccc(Cc2ccccc2)n1", "note": "[Example 69, N-(6-Benzylpyridin-2-yl)-N′-(2-methoxybenzyl)guanidine acetate]", "Ki": "< 100"},
      {"smiles": "COc1ccccc1CNC(=N)Nc1ncccc1-c1ccc(F)cc1", "note": "[Example 63, N-[3-(4-Fluorophenyl)pyridin-2-yl]-N′-(2-methoxybenzyl)guanidine acetate]", "Ki": "< 10000"},
      {"smiles": "COc1ccccc1CNC(=N)Nc1ccc(C)cn1", "note": "[Example 6, N-(2-methoxybenzyl)-N′-(5-methylpyridin-2-yl)guanidine acetate]", "Ki": "< 100"},
      {"smiles": "COc1ccccc1CNC(=N)Nc1ccccn1", "note": "[Example 1, N-(2-methoxybenzyl)-N′-pyridin-2-yl-guanidine acetate]", "Ki": "< 100"},
      {"smiles": "COc1ccccc1CNC(=N)Nc1cc(C)ccn1", "note": "[Example 29, N-(2-Methoxybenzyl)-N′-(4-methylpyridin-2-yl)guanidine acetate]", "Ki": "< 100"},
      {"smiles": "COc1ccccc1CNC(=N)Nc1cccc(C)n1", "note": "[Example 8, N-(2-Methoxybenzyl)-N′-(6-methylpyridin-2-yl)guanidine]", "Ki": "< 100"},
      {"smiles": "COc1cccc(OC)c1CNC(=N)Nc1cnc2ccccc2c1", "note": "[Example 17, N-(2,6-Dimethoxybenzyl)-N′-quinolin-3-yl-guanidine acetate]", "Ki": "< 100"},
      {"smiles": "COc1ccccc1CNC(=N)Nc1ccc2ccccc2n1", "note": "[Example 40, N-(2-Methoxybenzyl)-N′-quinolin-2-yl-guanidine acetate]", "Ki": "< 100"},
      {"smiles": "COc1cccc(OC)c1CNC(=N)Nc1cccc(Br)n1", "note": "[Example 43, N-(6-Bromopyridin-2-yl)-N′-(2,6-dimethoxybenzyl)guanidine]", "Ki": "< 100"},
      {"smiles": "COc1cccc(OC)c1CNC(=N)Nc1nccc(-c2cccs2)n1", "note": "[Example 15, N-(2,6-Dimethoxybenzyl)-N′-[4-(2-thienyl)pyrimidin-2-yl]guanidine acetate]", "Ki": "< 100"},
      {"smiles": "COc1cccc(OC)c1CNC(=N)Nc1cccc(C)n1", "note": "[Example 9, N-(2,6-dimethoxybenzyl)-N′-(6-methylpyridin-2-yl)guanidine]", "Ki": "< 100"},
      {"smiles": "COc1ccccc1CNC(=N)Nc1ccc(-c2cccs2)cn1", "note": "[Example 87, N-(2-Methoxybenzyl)-N′-[5-(2-thienyl)pyridin-2-yl]guanidine]", "Ki": "< 100"},
      {"smiles": "COc1cccc(OC)c1CNC(=N)Nc1ccccn1", "note": "[Example 5, N-(2,6-dimethoxybenzyl)-N′-pyridin-2-yl-guanidine acetate]", "Ki": "< 100"},
      {"smiles": "COc1cccc(OC)c1CNC(=N)Nc1cc(Br)ccn1", "note": "[Example 44, N-(4-Bromopyridin-2-yl)-N′-(2,6-dimethoxybenzyl)guanidine]", "Ki": "< 100"},
      {"smiles": "Cc1ccc(NC(=N)NCc2ccccc2Oc2ccccc2)nc1", "note": "[Example 28, N-(5-Methylpyridin-2-yl)-N′-(2-phenoxybenzyl)guanidine hydrochloride]", "Ki": "< 100"},
      {"smiles": "COc1cccc(F)c1CNC(=N)Nc1ccc(C#N)cn1", "note": "[Example 96, N-(5-Cyanopyridin-2-yl)-N′-(2-fluoro-6-methoxybenzyl)guanidine acetate]", "Ki": "< 100"},
      {"smiles": "CCOc1ccccc1CNC(=N)Nc1cccc(C#N)n1", "note": "[Example 81, N-(6-Cyanopyridin-2-yl)-N′-(2-ethoxybenzyl)guanidine acetate]", "Ki": "< 100"},
      {"smiles": "COc1cccc(C)c1CNC(=N)Nc1cccc(C#N)n1", "note": "[Example 76, N-(2-Methoxy-6-methylbenzyl)-N′-(6-cyanopyridin-2-yl)guanidine acetate]", "Ki": "< 100"},
      {"smiles": "COc1cccc(Cl)c1CNC(=N)Nc1ccc(C)cn1", "note": "[Example 18, N-(2-Chloro-6-methoxybenzyl)-N′-(5-methylpyridin-2-yl)guanidine acetate]", "Ki": "< 100"}
    ]}
  ]
}
